{"source": "patent US20250059220A1", "about": "“SUBSTITUTED BENZOTHIOPHENE DERIVATIVES AND METHODS OF USE THEREOF” (Merck Sharp & Dohme LLC, priority 2021, published 2025)", "key": {"human PTPN2 (1-387)": {"target": "human PTPN2 (1-387) (Homo sapiens (Human), UniProt P17706)", "sequence (P17706 other isoform, or with tags, fused parts or gaps)": "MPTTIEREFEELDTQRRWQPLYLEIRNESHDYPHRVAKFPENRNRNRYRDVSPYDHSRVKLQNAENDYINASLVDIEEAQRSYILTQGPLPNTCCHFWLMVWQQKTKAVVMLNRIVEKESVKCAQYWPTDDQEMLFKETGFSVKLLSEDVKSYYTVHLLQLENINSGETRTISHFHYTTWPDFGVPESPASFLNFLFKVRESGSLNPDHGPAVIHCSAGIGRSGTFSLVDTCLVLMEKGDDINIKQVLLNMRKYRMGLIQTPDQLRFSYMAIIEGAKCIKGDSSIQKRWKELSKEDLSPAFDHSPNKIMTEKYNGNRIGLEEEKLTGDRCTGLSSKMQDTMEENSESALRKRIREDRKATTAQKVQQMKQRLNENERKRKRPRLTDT", "assay": "Human PTPN2 Biochemical Assay", "details": "DiFMUP substrate", "how_it_was_run": "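Human PTPN2 (1-387) preincubated 30 min at RT with compound (10-point 3-fold series) in Tris pH 7.4 buffer with 0.5 mM DTT, then DiFMUP substrate added for 1 h at RT. Fluorescence at ex 360/em 460 nm, normalised to no-enzyme and enzyme controls; EC50 from 4-parameter fit.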"}, "human PTPN1 (1-435)": {"target": "human PTPN1 (1-435) (Homo sapiens (Human), UniProt P18031)", "sequence (P18031 whole entry)": "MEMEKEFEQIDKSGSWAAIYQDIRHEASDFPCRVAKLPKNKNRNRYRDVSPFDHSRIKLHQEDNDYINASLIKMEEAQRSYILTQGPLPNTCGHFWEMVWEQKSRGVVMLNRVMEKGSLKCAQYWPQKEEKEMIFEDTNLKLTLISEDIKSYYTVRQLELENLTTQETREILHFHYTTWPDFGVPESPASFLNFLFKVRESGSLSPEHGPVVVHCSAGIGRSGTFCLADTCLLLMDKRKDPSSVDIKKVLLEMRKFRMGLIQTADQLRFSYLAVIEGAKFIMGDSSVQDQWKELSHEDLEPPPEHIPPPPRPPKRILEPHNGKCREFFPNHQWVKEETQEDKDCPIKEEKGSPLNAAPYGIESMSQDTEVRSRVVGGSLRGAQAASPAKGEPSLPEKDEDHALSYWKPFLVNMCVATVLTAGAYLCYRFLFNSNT", "assay": "Human PTPN1 Biochemical Assay", "details": "DiFMUP substrate, read-out: PTP1B IC50", "how_it_was_run": "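Read-out is DiFMUP hydrolysis fluorescence (360 nm excitation, 460 nm emission) after 1 h at room temperature, following 30 min enzyme–compound preincubation.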"}}, "data": [{"smiles": "NC(=O)c1cc(OCCOCC(F)(F)F)c2sc(C(F)(F)P(=O)(O)O)c(Br)c2c1", "note": "[Compound 237]", "values": [{"measurement": "IC50", "setting": "human PTPN2 (1-387)", "result": 441, "unit": "nM"}, {"measurement": "IC50", "setting": "human PTPN1 (1-435)", "result": 544, "unit": "nM"}]}, {"smiles": "Cc1c(C(F)(F)P(=O)(O)O)sc2c(OCCCS(C)(=O)=O)cc(-c3nc[nH]n3)cc12", "note": "[Compound 436]", "values": [{"measurement": "IC50", "setting": "human PTPN2 (1-387)", "result": 6.6, "unit": "nM"}, {"measurement": "IC50", "setting": "human PTPN1 (1-435)", "result": 6.7, "unit": "nM"}]}, {"smiles": "O=C(NCc1cccnn1)c1cc(OCCCc2cccnc2)c2sc(C(F)(F)P(=O)(O)O)c(Br)c2c1", "note": "[Compound 266]", "values": [{"measurement": "IC50", "setting": "human PTPN2 (1-387)", "result": 12.9, "unit": "nM"}, {"measurement": "IC50", "setting": "human PTPN1 (1-435)", "result": 17.4, "unit": "nM"}]}, {"smiles": "Cc1cc(C)n(-c2ccccc2NC(=O)c2ccc3sc(C(F)(F)P(=O)(O)O)c(Br)c3c2)n1", "note": "[Compound 118]", "values": [{"measurement": "IC50", "setting": "human PTPN2 (1-387)", "result": 6170, "unit": "nM"}, {"measurement": "IC50", "setting": "human PTPN1 (1-435)", "result": 5910, "unit": "nM"}]}, {"smiles": "O=C(NC1CC1(F)F)c1ccc2sc(C(F)(F)P(=O)(O)O)c(Br)c2c1", "note": "(centres unmarked) [Compound 39]", "values": [{"measurement": "IC50", "setting": "human PTPN2 (1-387)", "result": 3000, "unit": "nM"}, {"measurement": "IC50", "setting": "human PTPN1 (1-435)", "result": 2270, "unit": "nM"}]}, {"smiles": "O=C(NCc1cnn2ccccc12)c1ccc2sc(C(F)(F)P(=O)(O)O)c(Br)c2c1", "note": "[Compound 22]", "values": [{"measurement": "IC50", "setting": "human PTPN2 (1-387)", "result": 2590, "unit": "nM"}, {"measurement": "IC50", "setting": "human PTPN1 (1-435)", "result": 1990, "unit": "nM"}]}, {"smiles": "[2H]C([2H])([2H])NC(=O)c1cc(OCCCS(C)(=O)=O)c2sc(C(F)(F)P(=O)(O)O)c(Br)c2c1", "note": "[Compound 304]", "values": [{"measurement": "IC50", "setting": "human PTPN2 (1-387)", "result": 8.9, "unit": "nM"}, {"measurement": "IC50", "setting": "human PTPN1 (1-435)", "result": 9.8, "unit": "nM"}]}, {"smiles": "CC(CC1C=Nc2ccc(F)cc21)NC(=O)c1ccc2sc(C(F)(F)P(=O)(O)O)c(Br)c2c1", "note": "(centres unmarked) [Compound 151]", "values": [{"measurement": "IC50", "setting": "human PTPN2 (1-387)", "result": 5980, "unit": "nM"}, {"measurement": "IC50", "setting": "human PTPN1 (1-435)", "result": 2740, "unit": "nM"}]}, {"smiles": "CS(=N)(=O)c1cc(OCCCC(F)(F)F)c2sc(C(F)(F)P(=O)(O)O)c(Br)c2c1", "note": "(centres unmarked) [Compound 414]", "values": [{"measurement": "IC50", "setting": "human PTPN2 (1-387)", "result": 6700, "unit": "nM"}, {"measurement": "IC50", "setting": "human PTPN1 (1-435)", "result": 3590, "unit": "nM"}]}, {"smiles": "N#CCOc1cc(C(N)=O)cc2c(Br)c(C(F)(F)P(=O)(O)O)sc12", "note": "[Compound 244]", "values": [{"measurement": "IC50", "setting": "human PTPN2 (1-387)", "result": 227, "unit": "nM"}, {"measurement": "IC50", "setting": "human PTPN1 (1-435)", "result": 259, "unit": "nM"}]}, {"smiles": "Cc1ccc(COc2cc(C(N)=O)cc3c(Br)c(C(F)(F)P(=O)(O)O)sc23)c(C)c1", "note": "[Compound 337]", "values": [{"measurement": "IC50", "setting": "human PTPN2 (1-387)", "result": 83.3, "unit": "nM"}, {"measurement": "IC50", "setting": "human PTPN1 (1-435)", "result": 158, "unit": "nM"}]}, {"smiles": "CS(=O)(=O)CCCOc1cc(-c2nc[nH]n2)cc2c(Br)c(C(F)(F)P(=O)(O)O)sc12", "note": "[Compound 439, ((3-bromo-7-(3-(methylsulfonyl)propoxy)-5-(1H-1,2,4-triazol-3-yl)benzo[b]thiophen-2-yl)difluoromethyl)phosphonic acid]", "values": [{"measurement": "IC50", "setting": "human PTPN2 (1-387)", "result": 2.5, "unit": "nM"}, {"measurement": "IC50", "setting": "human PTPN1 (1-435)", "result": 2.5, "unit": "nM"}]}, {"smiles": "CCCC(CO)Oc1cc(C(N)=O)cc2c(Br)c(C(F)(F)P(=O)(O)O)sc12", "note": "(centres unmarked) [Compound 447, ((3-bromo-5-carbamoyl-7-((1-hydroxypentan-2-yl)oxy)benzo[b]thiophen-2-yl)difluoromethyl)phosphonic acid]", "values": [{"measurement": "IC50", "setting": "human PTPN2 (1-387)", "result": 500, "unit": "nM"}, {"measurement": "IC50", "setting": "human PTPN1 (1-435)", "result": 231, "unit": "nM"}]}, {"smiles": "O=C(NCCc1c[nH]c2ccc(F)cc12)c1ccc2sc(C(F)(F)P(=O)(O)O)c(Br)c2c1", "note": "[Compound 94]", "values": [{"measurement": "IC50", "setting": "human PTPN2 (1-387)", "result": 2800, "unit": "nM"}, {"measurement": "IC50", "setting": "human PTPN1 (1-435)", "result": 2400, "unit": "nM"}]}, {"smiles": "CCC(NC(=O)c1ccc2sc(C(F)(F)P(=O)(O)O)c(Br)c2c1)c1nccs1", "note": "(centres unmarked) [Compound 105]", "values": [{"measurement": "IC50", "setting": "human PTPN2 (1-387)", "result": 5780, "unit": "nM"}, {"measurement": "IC50", "setting": "human PTPN1 (1-435)", "result": 5140, "unit": "nM"}]}, {"smiles": "CC(C)(O)CCCOc1cc(C(N)=O)cc2c(C(F)(F)F)c(C(F)(F)P(=O)(O)O)sc12", "note": "[Compound 456, ((5-carbamoyl-7-((4-hydroxy-4-methylpentyl)oxy)-3-(trifluoromethyl)benzo[b]thiophen-2-yl)difluoromethyl)phosphonic acid]", "values": [{"measurement": "IC50", "setting": "human PTPN2 (1-387)", "result": 14.1, "unit": "nM"}, {"measurement": "IC50", "setting": "human PTPN1 (1-435)", "result": 23.2, "unit": "nM"}]}, {"smiles": "O=C(NC1CC(F)(F)C1)c1ccc2sc(C(F)(F)P(=O)(O)O)c(Br)c2c1", "note": "[Compound 27]", "values": [{"measurement": "IC50", "setting": "human PTPN2 (1-387)", "result": 3230, "unit": "nM"}, {"measurement": "IC50", "setting": "human PTPN1 (1-435)", "result": 2190, "unit": "nM"}]}, {"smiles": "CC1CCS(=O)(=O)C1CCOc1cc(C(N)=O)cc2c(Br)c(C(F)(F)P(=O)(O)O)sc12", "note": "(single isomer, unassigned) [Compound 393]", "values": [{"measurement": "IC50", "setting": "human PTPN2 (1-387)", "result": 48, "unit": "nM"}, {"measurement": "IC50", "setting": "human PTPN1 (1-435)", "result": 56.9, "unit": "nM"}]}, {"smiles": "N#Cc1cc(C(=O)NCc2c[nH]nn2)cc2c(Br)c(C(F)(F)P(=O)(O)O)sc12", "note": "[Compound 162]", "values": [{"measurement": "IC50", "setting": "human PTPN2 (1-387)", "result": 222, "unit": "nM"}, {"measurement": "IC50", "setting": "human PTPN1 (1-435)", "result": 244, "unit": "nM"}]}, {"smiles": "O=C(NC1CCS(=O)(=O)C1)c1ccc2sc(C(F)(F)P(=O)(O)O)c(Br)c2c1", "note": "(centres unmarked) [Compound 56]", "values": [{"measurement": "IC50", "setting": "human PTPN2 (1-387)", "result": 3930, "unit": "nM"}, {"measurement": "IC50", "setting": "human PTPN1 (1-435)", "result": 2880, "unit": "nM"}]}, {"smiles": "O=C(NC(c1ccccc1F)C(F)(F)F)c1ccc2sc(C(F)(F)P(=O)(O)O)c(Br)c2c1", "note": "(centres unmarked) [Compound 13]", "values": [{"measurement": "IC50", "setting": "human PTPN2 (1-387)", "result": 5300, "unit": "nM"}, {"measurement": "IC50", "setting": "human PTPN1 (1-435)", "result": 4110, "unit": "nM"}]}, {"smiles": "NC(=O)c1cc(OCC23CC(S(N)(=O)=O)(C2)C3)c2sc(C(F)(F)P(=O)(O)O)c(Br)c2c1", "note": "[Compound 403]", "values": [{"measurement": "IC50", "setting": "human PTPN2 (1-387)", "result": 4, "unit": "nM"}, {"measurement": "IC50", "setting": "human PTPN1 (1-435)", "result": 4.6, "unit": "nM"}]}]}
